Each block holds one molecule with its values, some of them ahead of it.
Key:
MDA-MB-231 = assay: cells; conditions: Homo sapiens, MDA-MB-231, 96 h
Description: Antiproliferative activity against human MDA-MB-231 cells assessed as inhibition of cell growth incubated for 96 hrs by CCK-8 cell viability assay

PANC-1 [1] = assay: Antitumor activity against human PANC-1 cells xenografted in male BALB/c/Nu/Nu assessed as reduction in tumor growth inhibition at 4 mg/kg, ip and measured every 2 days for 21 days; conditions: Mus musculus, PANC-1, 48 h, read-out: TGI
PANC-1 [2] = assay: cells; conditions: Homo sapiens, PANC-1, 96 h
Description: Antiproliferative activity against human PANC-1 cells assessed as inhibition of cell growth incubated for 96 hrs by CCK-8 cell viability assay

[3] = molecular target: T1, Histone-lysine N-methyltransferase EHMT2 (Homo sapiens, UniProt Q96KQ7); assay: Inhibition of G9a (unknown origin) by AlphaLISA assay
T1 sequence (Q96KQ7 whole entry): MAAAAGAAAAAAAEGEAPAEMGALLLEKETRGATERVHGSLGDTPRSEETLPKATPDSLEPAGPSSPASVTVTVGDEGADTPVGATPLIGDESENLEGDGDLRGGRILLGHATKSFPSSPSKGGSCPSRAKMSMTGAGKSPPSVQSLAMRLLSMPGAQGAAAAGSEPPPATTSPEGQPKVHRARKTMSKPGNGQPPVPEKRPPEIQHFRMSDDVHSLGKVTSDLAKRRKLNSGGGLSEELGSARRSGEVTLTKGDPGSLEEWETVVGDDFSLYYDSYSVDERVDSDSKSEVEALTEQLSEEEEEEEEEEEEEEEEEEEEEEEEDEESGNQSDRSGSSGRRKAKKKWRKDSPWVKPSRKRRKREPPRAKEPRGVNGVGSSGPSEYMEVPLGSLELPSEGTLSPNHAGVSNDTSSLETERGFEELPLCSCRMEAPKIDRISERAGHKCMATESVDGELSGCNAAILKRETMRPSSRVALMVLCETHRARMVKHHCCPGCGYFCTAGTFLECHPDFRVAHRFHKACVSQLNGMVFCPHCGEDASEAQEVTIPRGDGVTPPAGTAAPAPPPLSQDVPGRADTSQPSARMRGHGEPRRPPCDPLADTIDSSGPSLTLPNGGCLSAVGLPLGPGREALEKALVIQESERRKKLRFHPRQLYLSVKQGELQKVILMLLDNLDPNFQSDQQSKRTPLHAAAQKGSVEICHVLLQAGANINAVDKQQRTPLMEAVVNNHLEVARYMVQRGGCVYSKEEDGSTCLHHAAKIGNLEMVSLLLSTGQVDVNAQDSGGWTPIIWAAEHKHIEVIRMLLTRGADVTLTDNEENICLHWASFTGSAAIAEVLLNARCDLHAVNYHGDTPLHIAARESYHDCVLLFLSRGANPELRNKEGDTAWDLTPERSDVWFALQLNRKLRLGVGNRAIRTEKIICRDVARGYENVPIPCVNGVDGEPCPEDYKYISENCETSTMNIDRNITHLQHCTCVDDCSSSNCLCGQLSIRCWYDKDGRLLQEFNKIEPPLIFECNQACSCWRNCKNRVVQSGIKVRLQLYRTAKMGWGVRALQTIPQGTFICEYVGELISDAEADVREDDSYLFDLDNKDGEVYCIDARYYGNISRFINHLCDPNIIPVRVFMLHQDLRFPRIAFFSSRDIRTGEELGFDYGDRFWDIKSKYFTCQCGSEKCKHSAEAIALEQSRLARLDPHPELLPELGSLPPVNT

[4] = molecular target: T2, Histone-lysine N-methyltransferase NSD2 (Homo sapiens, UniProt O96028); assay: Inhibition of NSD2 (unknown origin) by AlphaLISA assay
T2 sequence (O96028 whole entry): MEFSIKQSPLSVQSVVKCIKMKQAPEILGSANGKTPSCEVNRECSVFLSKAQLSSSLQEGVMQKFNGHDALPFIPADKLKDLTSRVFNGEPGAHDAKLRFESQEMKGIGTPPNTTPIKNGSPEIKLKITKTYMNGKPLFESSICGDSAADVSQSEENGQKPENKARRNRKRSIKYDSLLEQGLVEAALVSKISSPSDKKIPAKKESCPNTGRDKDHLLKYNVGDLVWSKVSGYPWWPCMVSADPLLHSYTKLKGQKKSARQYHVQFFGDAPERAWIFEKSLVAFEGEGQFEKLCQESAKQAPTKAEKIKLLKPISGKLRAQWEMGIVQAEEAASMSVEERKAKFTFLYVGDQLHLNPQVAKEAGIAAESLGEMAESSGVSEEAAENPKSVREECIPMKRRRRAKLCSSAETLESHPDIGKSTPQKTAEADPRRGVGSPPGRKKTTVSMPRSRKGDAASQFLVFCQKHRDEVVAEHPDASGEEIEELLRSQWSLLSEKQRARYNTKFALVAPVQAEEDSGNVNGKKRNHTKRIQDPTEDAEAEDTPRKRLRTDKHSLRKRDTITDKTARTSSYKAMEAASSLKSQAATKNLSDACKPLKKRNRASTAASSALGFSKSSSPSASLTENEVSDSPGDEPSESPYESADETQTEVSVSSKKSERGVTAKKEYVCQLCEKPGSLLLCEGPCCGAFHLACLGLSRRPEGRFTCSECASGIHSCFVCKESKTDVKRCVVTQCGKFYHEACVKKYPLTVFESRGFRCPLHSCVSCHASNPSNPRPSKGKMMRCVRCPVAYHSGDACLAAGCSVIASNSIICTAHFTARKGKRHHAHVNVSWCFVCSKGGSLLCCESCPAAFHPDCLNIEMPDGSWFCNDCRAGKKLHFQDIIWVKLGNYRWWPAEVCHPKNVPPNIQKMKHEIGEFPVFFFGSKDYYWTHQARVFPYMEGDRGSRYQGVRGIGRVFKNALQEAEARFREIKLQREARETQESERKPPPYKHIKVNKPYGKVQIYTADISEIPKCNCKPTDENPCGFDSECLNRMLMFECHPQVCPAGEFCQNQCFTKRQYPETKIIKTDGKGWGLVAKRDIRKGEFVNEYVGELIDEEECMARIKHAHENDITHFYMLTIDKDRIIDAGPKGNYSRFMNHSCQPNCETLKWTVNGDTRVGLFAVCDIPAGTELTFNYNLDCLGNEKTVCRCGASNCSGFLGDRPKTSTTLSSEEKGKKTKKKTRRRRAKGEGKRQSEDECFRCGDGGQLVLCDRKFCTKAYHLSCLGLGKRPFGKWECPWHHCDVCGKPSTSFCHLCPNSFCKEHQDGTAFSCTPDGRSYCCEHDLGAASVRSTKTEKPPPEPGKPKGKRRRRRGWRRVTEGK

[5] = molecular target: Histone-lysine N-methyltransferase EZH2 (Homo sapiens, UniProt Q15910); assay: Inhibition of EZH2 (unknown origin)
Sequence of Histone-lysine N-methyltransferase EZH2 (Q15910 whole entry): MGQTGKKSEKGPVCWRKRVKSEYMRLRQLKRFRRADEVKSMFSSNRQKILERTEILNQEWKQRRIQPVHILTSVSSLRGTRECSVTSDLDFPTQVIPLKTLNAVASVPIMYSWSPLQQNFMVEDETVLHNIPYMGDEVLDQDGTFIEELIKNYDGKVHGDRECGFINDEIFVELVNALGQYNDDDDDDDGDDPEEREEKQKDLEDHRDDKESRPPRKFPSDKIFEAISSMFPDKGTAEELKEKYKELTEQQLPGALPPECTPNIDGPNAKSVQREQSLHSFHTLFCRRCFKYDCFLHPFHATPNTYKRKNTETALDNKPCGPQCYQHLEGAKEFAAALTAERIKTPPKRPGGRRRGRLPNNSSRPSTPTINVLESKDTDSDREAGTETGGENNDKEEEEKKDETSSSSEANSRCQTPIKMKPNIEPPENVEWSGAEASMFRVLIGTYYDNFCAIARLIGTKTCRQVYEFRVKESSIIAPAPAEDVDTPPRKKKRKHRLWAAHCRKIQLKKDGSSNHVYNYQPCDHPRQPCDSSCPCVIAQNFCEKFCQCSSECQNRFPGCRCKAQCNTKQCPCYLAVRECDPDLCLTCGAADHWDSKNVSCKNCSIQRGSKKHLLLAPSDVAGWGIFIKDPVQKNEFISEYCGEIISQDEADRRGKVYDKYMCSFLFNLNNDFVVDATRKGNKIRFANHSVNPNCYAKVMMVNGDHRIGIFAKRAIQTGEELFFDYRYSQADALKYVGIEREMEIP

[6] = molecular target: DNA (cytosine-5)-methyltransferase 1 (Homo sapiens, UniProt P26358); assay: Inhibition of DNMT1 (unknown origin)
Sequence of DNA (cytosine-5)-methyltransferase 1 (P26358 whole entry): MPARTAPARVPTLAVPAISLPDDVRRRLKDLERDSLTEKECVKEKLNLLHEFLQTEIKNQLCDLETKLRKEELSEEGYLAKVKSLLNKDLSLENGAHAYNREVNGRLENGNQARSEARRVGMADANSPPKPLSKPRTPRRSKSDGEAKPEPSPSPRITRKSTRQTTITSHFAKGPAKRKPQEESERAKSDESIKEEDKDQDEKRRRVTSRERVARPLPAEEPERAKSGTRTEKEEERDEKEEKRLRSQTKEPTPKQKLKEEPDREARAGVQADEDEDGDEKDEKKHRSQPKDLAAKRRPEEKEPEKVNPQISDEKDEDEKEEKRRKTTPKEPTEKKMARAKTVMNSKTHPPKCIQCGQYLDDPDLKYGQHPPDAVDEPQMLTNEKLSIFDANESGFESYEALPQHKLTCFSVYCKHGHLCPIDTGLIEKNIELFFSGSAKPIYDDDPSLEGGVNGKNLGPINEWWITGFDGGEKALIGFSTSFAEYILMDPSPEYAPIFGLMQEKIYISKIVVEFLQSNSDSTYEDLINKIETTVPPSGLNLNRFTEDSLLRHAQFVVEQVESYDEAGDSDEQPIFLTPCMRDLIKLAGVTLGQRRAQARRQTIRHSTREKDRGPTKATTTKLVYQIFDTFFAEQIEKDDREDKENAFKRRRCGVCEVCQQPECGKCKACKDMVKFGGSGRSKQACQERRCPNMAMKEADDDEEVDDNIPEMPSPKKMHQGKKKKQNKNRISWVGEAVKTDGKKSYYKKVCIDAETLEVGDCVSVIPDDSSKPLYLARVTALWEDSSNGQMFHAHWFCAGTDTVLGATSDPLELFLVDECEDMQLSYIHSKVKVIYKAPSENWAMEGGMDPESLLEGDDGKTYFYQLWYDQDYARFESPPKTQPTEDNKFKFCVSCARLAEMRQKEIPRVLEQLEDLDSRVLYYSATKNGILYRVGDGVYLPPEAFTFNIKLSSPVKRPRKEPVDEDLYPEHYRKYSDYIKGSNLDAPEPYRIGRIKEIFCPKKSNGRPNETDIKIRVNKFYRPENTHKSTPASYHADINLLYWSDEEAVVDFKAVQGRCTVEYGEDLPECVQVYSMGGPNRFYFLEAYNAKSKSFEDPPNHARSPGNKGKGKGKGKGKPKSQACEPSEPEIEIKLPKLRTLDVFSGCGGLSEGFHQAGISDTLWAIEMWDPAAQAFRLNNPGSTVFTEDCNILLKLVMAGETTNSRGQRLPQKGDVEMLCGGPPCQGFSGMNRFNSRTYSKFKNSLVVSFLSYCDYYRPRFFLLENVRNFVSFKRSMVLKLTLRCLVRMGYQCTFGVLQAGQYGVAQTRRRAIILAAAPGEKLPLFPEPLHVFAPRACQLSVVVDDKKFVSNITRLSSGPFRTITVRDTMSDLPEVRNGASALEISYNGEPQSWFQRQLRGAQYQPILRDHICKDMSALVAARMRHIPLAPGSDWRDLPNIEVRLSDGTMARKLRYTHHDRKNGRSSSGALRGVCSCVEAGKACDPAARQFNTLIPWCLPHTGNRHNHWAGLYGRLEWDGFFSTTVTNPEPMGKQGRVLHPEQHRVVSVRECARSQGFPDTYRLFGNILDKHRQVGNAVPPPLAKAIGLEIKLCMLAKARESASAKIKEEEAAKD

[7] = Toxicity in male BALB/c/Nu/Nu mouse xenografted with human PANC-1 cells assessed as change in body weight administered as ip dose and measured every 2 days for 21 days; assay type: organism-based; conditions: in vivo, 504 h, time 21 day
[8] = Cmax in mouse at 4 mg/kg, ip; assay type: ADME, organism-based; conditions: in vivo
[9] = molecular target: Protein arginine N-methyltransferase 1 (Homo sapiens, UniProt Q99873); assay: Inhibition of PRMT1 (unknown origin)
Sequence of Protein arginine N-methyltransferase 1 (Q99873 whole entry): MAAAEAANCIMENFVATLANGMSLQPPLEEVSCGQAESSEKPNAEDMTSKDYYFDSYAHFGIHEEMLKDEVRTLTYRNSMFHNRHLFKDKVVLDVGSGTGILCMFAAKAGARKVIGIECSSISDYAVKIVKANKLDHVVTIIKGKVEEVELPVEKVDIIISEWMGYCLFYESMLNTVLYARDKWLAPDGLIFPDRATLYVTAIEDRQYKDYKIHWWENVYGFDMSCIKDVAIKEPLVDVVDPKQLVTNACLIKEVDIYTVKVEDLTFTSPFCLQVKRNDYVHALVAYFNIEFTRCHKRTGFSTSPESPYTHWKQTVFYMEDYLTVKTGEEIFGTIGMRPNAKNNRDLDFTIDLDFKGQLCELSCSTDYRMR

[10] = molecular target: Protein arginine N-methyltransferase 5 (Homo sapiens, UniProt O14744); assay: Inhibition of PRMT5 (unknown origin)
Sequence of Protein arginine N-methyltransferase 5 (O14744 whole entry): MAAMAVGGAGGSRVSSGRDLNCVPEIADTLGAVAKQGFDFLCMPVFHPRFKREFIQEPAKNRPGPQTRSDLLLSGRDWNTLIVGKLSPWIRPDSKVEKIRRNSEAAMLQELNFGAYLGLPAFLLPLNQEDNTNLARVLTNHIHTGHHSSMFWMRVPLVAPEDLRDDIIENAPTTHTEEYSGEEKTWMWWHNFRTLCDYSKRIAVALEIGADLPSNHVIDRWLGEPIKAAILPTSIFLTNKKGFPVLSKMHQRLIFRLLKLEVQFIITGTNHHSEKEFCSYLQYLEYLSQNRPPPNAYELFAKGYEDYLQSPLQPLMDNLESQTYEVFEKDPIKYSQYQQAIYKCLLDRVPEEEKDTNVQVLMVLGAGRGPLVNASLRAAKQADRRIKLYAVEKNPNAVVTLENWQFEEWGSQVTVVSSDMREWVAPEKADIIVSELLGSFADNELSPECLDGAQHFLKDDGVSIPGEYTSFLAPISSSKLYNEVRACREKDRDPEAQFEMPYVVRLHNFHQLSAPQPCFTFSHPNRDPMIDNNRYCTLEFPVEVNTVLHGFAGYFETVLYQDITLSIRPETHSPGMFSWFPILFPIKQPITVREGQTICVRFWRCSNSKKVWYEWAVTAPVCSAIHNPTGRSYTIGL

[11] = molecular target: T3, Histone-arginine methyltransferase CARM1 (Homo sapiens, UniProt Q86X55); assay: Inhibition of PRMT4 (unknown origin)
T3 sequence (Q86X55 whole entry): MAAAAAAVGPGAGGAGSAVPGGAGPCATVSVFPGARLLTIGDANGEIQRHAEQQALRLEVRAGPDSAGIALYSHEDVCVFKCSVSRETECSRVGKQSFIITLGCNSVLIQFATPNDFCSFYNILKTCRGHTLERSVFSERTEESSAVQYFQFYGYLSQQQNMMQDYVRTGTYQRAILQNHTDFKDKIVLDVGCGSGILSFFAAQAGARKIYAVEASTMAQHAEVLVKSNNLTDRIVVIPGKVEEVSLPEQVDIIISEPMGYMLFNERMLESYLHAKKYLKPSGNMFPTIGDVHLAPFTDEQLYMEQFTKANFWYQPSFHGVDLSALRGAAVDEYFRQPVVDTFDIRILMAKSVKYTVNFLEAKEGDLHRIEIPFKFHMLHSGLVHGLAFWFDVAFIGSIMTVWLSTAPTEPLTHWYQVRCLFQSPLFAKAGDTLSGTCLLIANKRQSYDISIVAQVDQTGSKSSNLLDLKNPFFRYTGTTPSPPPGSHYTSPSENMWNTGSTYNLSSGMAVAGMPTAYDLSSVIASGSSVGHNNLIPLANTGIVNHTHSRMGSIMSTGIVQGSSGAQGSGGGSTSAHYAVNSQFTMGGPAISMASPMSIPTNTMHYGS

[12] = MRT (0 to t) in mouse at 4 mg/kg, ip; assay type: ADME, organism-based; conditions: in vivo
[13] = molecular target: Histone-lysine N-methyltransferase 2B (Homo sapiens, UniProt Q9UMN6); assay: Inhibition of MLL4 (unknown origin)
[14] = molecular target: Histone-lysine N-methyltransferase 2A (Homo sapiens, UniProt Q03164); assay: Inhibition of MLL1 (unknown origin)
[15] = molecular target: T4, Histone-lysine N-methyltransferase EHMT1 (Homo sapiens, UniProt Q9H9B1); assay: Inhibition of GLP (unknown origin)
T4 sequence (Q9H9B1 whole entry): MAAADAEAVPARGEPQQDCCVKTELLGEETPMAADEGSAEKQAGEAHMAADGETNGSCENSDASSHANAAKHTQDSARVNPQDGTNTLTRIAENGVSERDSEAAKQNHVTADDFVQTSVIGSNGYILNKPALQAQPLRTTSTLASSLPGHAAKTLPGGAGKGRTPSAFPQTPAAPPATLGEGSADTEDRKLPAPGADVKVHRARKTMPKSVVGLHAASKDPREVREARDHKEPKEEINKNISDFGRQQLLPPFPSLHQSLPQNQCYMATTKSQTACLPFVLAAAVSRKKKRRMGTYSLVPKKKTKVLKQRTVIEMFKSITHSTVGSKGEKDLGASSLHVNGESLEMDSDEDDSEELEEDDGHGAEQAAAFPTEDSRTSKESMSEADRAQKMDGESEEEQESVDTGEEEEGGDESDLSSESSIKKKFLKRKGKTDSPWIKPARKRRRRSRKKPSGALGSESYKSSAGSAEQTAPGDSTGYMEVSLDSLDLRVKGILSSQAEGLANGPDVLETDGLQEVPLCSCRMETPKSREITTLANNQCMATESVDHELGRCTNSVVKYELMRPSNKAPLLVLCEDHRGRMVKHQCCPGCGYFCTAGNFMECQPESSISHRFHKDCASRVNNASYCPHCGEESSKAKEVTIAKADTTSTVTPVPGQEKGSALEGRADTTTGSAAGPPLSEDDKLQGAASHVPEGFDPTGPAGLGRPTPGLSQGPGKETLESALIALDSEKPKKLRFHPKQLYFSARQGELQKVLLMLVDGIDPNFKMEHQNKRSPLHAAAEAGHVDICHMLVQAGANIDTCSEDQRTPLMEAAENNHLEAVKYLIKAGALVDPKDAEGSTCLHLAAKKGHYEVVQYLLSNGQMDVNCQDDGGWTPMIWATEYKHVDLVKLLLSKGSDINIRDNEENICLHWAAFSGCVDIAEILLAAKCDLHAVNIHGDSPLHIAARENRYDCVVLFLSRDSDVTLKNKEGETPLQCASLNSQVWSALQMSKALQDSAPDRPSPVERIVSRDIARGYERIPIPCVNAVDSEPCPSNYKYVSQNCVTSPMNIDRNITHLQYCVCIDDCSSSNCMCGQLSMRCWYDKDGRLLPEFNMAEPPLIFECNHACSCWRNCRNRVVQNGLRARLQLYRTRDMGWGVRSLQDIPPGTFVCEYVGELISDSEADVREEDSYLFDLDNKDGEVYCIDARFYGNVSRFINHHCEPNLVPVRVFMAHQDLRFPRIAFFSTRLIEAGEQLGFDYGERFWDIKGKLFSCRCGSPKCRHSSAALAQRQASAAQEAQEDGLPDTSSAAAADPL

[16] = Half life in mouse at 4 mg/kg, ip; assay type: ADME, organism-based; conditions: in vivo
[17] = AUC (0 to last) in mouse at 4 mg/kg, ip; assay type: ADME, organism-based; conditions: in vivo
[18] = Toxicity in male BALB/c/Nu/Nu mouse xenografted with human PANC-1 cells assessed as drug tolerance administered as ip dose and measured every 2 days for 21 days; assay type: organism-based; conditions: in vivo, 504 h, time 21 day
[19] = AUC (0 to infinity) in mouse at 4 mg/kg, ip; assay type: ADME, organism-based; conditions: in vivo

Compound: CNc1nc2cc(OCCCN3CCCC3)c(OC)cc2n1C(C)C
- IC50 [3]: < 0.1 µM

Compound: COc1cc2nc(C#N)nc(NC3CCN(Cc4ccccc4)CC3)c2cc1OC
- IC50 [4]: 2.65 µM
- IC50 [3]: > 10 µM

Compound: COc1cc(F)c(-c2cc(Cn3cnc4c(N)ncnc43)c(N3CCC[C@](N)([C@H](O)CF)C3)cn2)cc1F
- IC50 [4]: < 0.1 µM

Further lines, with some results ahead:

- IC50 (MDA-MB-231): 3.31 µM
- IC50 (PANC-1 [2]): 5.74 µM
Compound: COc1cc2c(NC3CCN(C(C)C)CC3)nc(N3CCC(F)(F)CC3)nc2cc1OCCCN1CCCC1
- inhibition in vivo at 4 mg/kg (PANC-1 [1]): 7.34%

- IC50 [3]: 0.0085 µM
Compound: C=CC(=O)N(C)c1nc(NC2CCN(C(C)C)CC2)c2cc(OC)c(OCCCN3CCCC3)cc2n1

- IC50 [5]: > 10 µM
- IC50 [6]: > 10 µM
- Cmax [8]: 732 ng/mL
- IC50 [9]: 6.44 µM
- IC50 [10]: > 10 µM
- IC50 [11]: > 10 µM
- MRT last [12]: 20.3 h
- IC50 [13]: > 10 µM
- IC50 [14]: > 10 µM
- IC50 [15]: 0.41 µM
- half-life [16]: 16 h
- AUClast [17]: 1987 ng·h/mL
- AUC [19]: 2960 ng·h/mL
Compound: COc1cc2c(NC3CCN(C(C)C)CC3)nc(C#N)nc2cc1OCCCN1CCCC1
- Activity [7]: Non-Toxic
- Activity [18]: Non-Toxic
